Entries after “also recorded” stand apart in the source; their conditions may differ.
Assays:
human sEH = biological target: T1, human sEH (Homo sapiens, UniProt P34913); test: Inhibition of recombinant human sEH, IC50 assay with 4-nitrophenyl-trans-2,3-epoxy-3-phenylpropyl carbonate as substrate; assay type: biochemical; details: Table 2; […] enzyme, 5 min preincubation, pH 7.4, 30° C.; means ± SD; read-out: IC50 (μM) Human sEH
T1 construct: made in house; host or cells: baculovirus expression system
T1 sequence (P34913 1-555): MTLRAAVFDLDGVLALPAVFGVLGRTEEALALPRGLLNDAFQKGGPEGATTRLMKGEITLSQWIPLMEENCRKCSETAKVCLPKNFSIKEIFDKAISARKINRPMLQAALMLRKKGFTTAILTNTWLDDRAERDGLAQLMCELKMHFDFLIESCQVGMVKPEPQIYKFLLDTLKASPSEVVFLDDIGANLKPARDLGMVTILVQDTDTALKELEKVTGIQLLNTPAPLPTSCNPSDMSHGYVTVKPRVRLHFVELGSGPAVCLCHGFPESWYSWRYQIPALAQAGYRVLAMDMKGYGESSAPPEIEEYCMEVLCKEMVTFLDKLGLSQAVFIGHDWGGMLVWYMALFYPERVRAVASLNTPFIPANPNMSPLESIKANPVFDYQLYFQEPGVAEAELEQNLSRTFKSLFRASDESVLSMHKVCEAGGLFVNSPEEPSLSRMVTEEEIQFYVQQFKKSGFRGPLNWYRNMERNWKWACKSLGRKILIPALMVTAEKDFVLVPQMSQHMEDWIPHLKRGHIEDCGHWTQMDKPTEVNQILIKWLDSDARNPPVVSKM
Protocol: Assays were performed in triplicate. […] The curve was generated from at least three separate runs, each in triplicate, to obtain the standard deviation (SD) given in Table 1 thru Table 4.

[1] = Cream on index finger of a patient with Raynaud syndrome before cold exposure; assay type: in vivo, human; details: cream applied to a finger before cold exposure
Protocol: The experimental design involved preparing the Vanicream solutions with ethanol with or without active compound, then covering the syringe barrels with aluminum foil. The compounds were applied in a bind fashion approximately 20 minutes before exposure and then the hands were exposed to cold for approximately 30 minutes and the results recorded. The following day the results were decoded. Treatments (left or right index finger) were random. […] The test compounds were dissolved in ethanol at a concentration of 10 mg/mL and this in turn mixed with commercial Vanicream at a 10:1 concentration to give 1 mg/mL final concentration of active ingredient in the Vanicream/ethanol mixture. Approximately 100 μL of cream (±sEH inhibitor) were applied to a single finger. The first two columns indicate that over a range of exposure conditions the results from the left and right […] were similar. […] Since the experiment was run blind, the left and right index fingers were treated in a random fashion. For convenience the treatments are shown on the right in each case. […]

[2] = Pharmacokinetics of 687 and 800 in a human subject; assay type: in vivo; details: FIG. 11; single oral administration of either 687 or 800 to a human subject
Protocol: (§1) Serial bled blood samples (3-50 μL) were collected from finger tips into 50 μL heparinized capillary tube at various time points (0.5, 1, 2, 4, 6, 12 and 24 hr) after administration. These samples were used to measure parent compounds and their metabolites using LC-MS/MS as described above for experiments with mice. Blood samples were added 400 μL of distilled water and 25 μL of internal standard (500 ng/mL CTU), and vortexed. The blood samples were then extracted with 500 μL of ethyl acetate twice and the ethyl acetate layer was dried under nitrogen. The residue was reconstituted in 25 μL of methanol, and aliquots (10 μL) were injected onto the LC-MS/MS system as described above. Biological end points came from clinical chemistry samples run at The University of California Davis Clinical Laboratory and a series of 6 inflammatory markers including C reactive protein were run blind at the University of California Davis Department of Nephrology.

[3] = Metabolic stability in rat hepatic microsomes with NADPH generating system; assay type: in vitro ADME; details: 1 μM, NADPH generating system, FIGS. 6 and 7
Protocol: FIG. 6 is a graph illustrating the metabolic stabilities of 1-adamantyl-3-dodecyl urea (686) and 1-cyclohexyl-3-dodecyl urea (297) in rat hepatic microsomes. Microsomes were incubated with 1 μM 686 or 297 in the presence of an NADPH generating system. Data are expressed as mean ±SD of triplicate experiments.
To evaluate the metabolic stability of these inhibitors, the microsomal and NADPH dependent metabolism of a number of potent sEH inhibitors was evaluated. […] The first step in the metabolic transformation of the n-alkyl to n-alkanoic acid derivatives is an NAPDH dependent process carried out by cytochrome P450 dependent omega hydroxylation in rodent and human hepatic tissue preparations (see FIG. 8). When in vivo metabolism was evaluated, evidence for the beta-oxidation of the alkanoic acid derivatives was also found (see FIG. 9).

[4] = system: linoleate and arachidonate derived epoxides and diols; test: Urinary oxylipins in angiotensin II infused rats; assay type: in vivo, rat; details: ANGII infused Sprague-Dawley rats, subcutaneous injection, urine 24 hr post exposure, LC/MS/MS
Source text: In this example, hypertension was induced in one group of Sprague-Dawley rats by the infusion of angiotensin II (ANGII).

[5] = Pharmacokinetics after oral gavage in mice; assay type: in vivo, mouse; details: 5 mg/kg orally
Protocol: Animals. Male Swiss Webster mice, 6 weeks-old, were obtained from Charles River (Calif., USA). […] The body weight of animals used in all the experiments ranged from 28 g to 38 g. […] Administration and measurement. […] Then the samples were centrifuged at 6000 rpm for 5 min, and the ethyl acetate layer was dried under nitrogen. The residue was reconstituted in 25 μL of methanol, and aliquots (5 μL) were injected onto the LC-MS/MS system. Analysis. Pharmacokinetics analysis was performed using SigmaPlot software system (SPSS science, Chicago, Ill.). […] AUC=a/b Where: • C=the total blood concentration at time t • a=the extrapolated zero intercept b=the apparent first-order elimination rate constant

[6] = Oral AUDA butyl ester (800) in a patient with end stage renal disease: clinical chemistry, C reactive protein, blood pressure; assay type: in vivo, human
Protocol: as §1, with “These” for “Serial bled blood samples (3-50 μL) were collected from finger tips into 50 μL heparinized capillary tube at various time points (0.5, 1, 2, 4, 6, 12 and 24 hr) after administration. These”

[7] = Blood concentration after oral administration of 950 and AUDA-nBE, human pharmacokinetic profile; assay type: in vivo
Protocol: FIG. 16 provides a sample preparation procedure for a pharmacokinetic study. A 5 μl whole blood sample was drawn into a capillary at a specific time point, each sample was extracted and anaylzed by LC/MS-MS. […] AUDA is the active metabolite of AUDA-nBE. […] 0.05 mg/kg. (B). 0.1 mg/kg. […] The compounds were administered at the same time in the same formulation. […] 21 mg (0.3 mg/kg) 950 and AUDA-nBE were orally administrated with starch. (B). 7 mg (0.1 mg/kg) formulated 950 and AUDA-NBE were taken with (HPMC, starch and lactose). (C). […] 950 with HPMC and Starch. (B). 950 in lactose and HPMC. […] HPMC forms a gel which slowly erodes; lactose enhances erosion at it moves through the gut and starch retards it. These formulations are combined, ball milled, and then placed in ‘0’ capsule and not compressed.

[8] = assay type: in vitro ADME, rat and human
Source text: Both rat and human microsomes were used for the 950 metabolism study.

SMILES: CCCCCCCCCCCCNC(=O)NC1CCCCC1 [Compound 297, 1-cyclohexyl-3-dodecyl urea, reference compound]
- IC50 (human sEH): 0.14 ± 0.01 µM
- effect on Raynaud's symptoms [1]: reduces severity of Raynaud's symptoms

SMILES: O=C(O)CCCCCCCCCCCNC(=O)NC12CC3CC(CC(C3)C1)C2 [Compound 687, 1-(1-adamantyl)-3-(12-dodecanoic acid)urea]
- maximum circulating concentration of 687, humans compared with mice [2]: much higher in humans
- metabolic stability in microsomal preparations [3]: stable
- urinary diol concentrations (DHOMEs, DHETs) [4]: decrease in diol concentrations
- urinary epoxides (EpOMEs, EETs) [4]: increase in urinary epoxides
- time to reach the maximum concentration [5]: 30 min

SMILES: CCCCOC(=O)CCCCCCCCCCCNC(=O)NC12CC3CC(CC(C3)C1)C2 [Compound 800, 1-(1-Adamantyl)-3-(11-butoxycarbonylundecyl)urea]
- serum profile of regulatory lipids ([6]; patient approaching ESRD, brief oral treatment with low doses): altered the serum profile of regulatory lipids in a positive manner
- Creatinine ([6]; same trial, ESRD without drug 5.0, normal 0.5-1.3): 4.9 mg/dL
- Cmax ([7]; FIG. 23, 7mg each in tristerate (0.1 mg/kg) orally, human): rather high Cmax
- performance of simple dry formulations ([7]; FIG. 26, starch, HPMC/starch/lactose or lactose, 0.1-0.3 mg/kg orally): very poorly
- absorption depending on formulation ([7]; FIGS. 23 and 26, oral, human, listed as AUDA-BE): only absorbed efficiently in a lipid formulation; also recorded: bioavailable in lipid formulations

SMILES: CCOCCOCCOCCCCCNC(=O)NC12CC3CC(CC(C3)C1)C2 [Compound 950]
- major metabolite in vitro [8]: hydroxy metabolite was the major metabolite
- T1/2 compared with AUDA-BE ([7]; human, in vivo, po, 0.1 mg/kg): longer T1/2
- pharmacokinetics ([7]; in vivo): improved pharmacokinetics

Reference: patent publication US20050164951A1, “Inhibitors for the soluble epoxide hydrolase” (The Regents of the University of California, priority 2003, published 2005)
